These results are taken from ChEMBL document CHEMBL5212743, “Selectivity Literature for EUbOPEN Chemogenomics Library wave 3” (2023).

The structures appear in SMILES notation.

Assay [1] has as its target 5-hydroxytryptamine receptor 7 (Homo sapiens, UniProt P34969). Nature of the assay: Selectivity interaction (GPCR panel (PDSP screen)) EUB0000252b HTR7.
The target in another assay is T1, Adenosine receptor A3 (Homo sapiens, UniProt P0DMS8).
T1 sequence (P0DMS8 whole entry): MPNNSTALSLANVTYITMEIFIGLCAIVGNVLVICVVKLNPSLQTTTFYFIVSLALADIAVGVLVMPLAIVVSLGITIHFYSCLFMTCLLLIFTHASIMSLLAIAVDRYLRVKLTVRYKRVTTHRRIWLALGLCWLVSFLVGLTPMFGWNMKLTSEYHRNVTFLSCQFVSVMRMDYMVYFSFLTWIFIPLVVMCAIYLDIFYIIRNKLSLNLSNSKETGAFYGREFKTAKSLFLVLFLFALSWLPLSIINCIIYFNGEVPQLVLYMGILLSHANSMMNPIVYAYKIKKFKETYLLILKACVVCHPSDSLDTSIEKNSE
Nature of the assay: Selectivity interaction (NIBR principial panel (12 GPCRs, 3 nuclear receptors, 3 transporters, and 7 other enzymes)) EUB0000253b ADORA3.

A further assay addresses D(3) dopamine receptor (Homo sapiens, UniProt P35462). Description: Selectivity interaction (NIBR principial panel (12 GPCRs, 3 nuclear receptors, 3 transporters, and 7 other enzymes)) EUB0000253b DRD3.
The target in the next assay is Histamine H3 receptor (Homo sapiens, UniProt Q9Y5N1). Nature of the assay: Selectivity interaction (NIBR principial panel (12 GPCRs, 3 nuclear receptors, 3 transporters, and 7 other enzymes)) EUB0000253b HRH3.
Sequence of Histamine H3 receptor (Q9Y5N1 whole entry): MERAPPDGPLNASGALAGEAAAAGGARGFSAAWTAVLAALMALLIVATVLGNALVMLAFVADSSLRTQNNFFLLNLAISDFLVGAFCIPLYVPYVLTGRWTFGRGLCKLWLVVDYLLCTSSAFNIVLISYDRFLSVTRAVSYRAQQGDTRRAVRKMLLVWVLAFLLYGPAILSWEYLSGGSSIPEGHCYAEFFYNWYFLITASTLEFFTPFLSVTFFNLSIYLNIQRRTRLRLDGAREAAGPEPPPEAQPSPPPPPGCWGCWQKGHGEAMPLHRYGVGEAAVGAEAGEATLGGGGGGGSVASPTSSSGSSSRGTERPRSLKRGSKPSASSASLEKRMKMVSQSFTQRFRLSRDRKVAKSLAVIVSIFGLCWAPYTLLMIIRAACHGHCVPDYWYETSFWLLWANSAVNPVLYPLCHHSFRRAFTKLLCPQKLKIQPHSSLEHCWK
Assay [2] has as its target T2, Bromodomain-containing protein 7 (Homo sapiens) (UniProt Q9NPI1).
T2 sequence (whole entry): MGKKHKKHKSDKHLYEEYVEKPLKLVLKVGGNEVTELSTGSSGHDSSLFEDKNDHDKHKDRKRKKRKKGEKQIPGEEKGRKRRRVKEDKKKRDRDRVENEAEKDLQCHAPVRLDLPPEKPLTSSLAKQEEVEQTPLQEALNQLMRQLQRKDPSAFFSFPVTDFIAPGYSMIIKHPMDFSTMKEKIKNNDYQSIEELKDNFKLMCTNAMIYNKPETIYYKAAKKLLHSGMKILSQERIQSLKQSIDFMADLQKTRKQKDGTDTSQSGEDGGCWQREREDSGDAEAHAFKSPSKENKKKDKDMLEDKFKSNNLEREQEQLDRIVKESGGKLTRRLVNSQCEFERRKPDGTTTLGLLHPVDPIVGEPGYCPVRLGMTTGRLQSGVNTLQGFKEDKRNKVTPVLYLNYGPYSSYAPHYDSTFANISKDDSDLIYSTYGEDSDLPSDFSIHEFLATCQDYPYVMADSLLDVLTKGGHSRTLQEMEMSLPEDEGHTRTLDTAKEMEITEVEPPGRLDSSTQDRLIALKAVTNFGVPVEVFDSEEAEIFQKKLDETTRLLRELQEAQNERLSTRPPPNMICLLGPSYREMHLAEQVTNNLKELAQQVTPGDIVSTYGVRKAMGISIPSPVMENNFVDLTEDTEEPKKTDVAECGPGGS
Description: Selectivity interaction (Bromodomain panel (DSF assay)) EUB0000253b BRD7.

In assay [3] the target is T3, Chromatin remodeling regulator CECR2 (Homo sapiens, UniProt Q9BXF3). Nature of the assay: Selectivity interaction (Bromodomain panel (DSF assay)) EUB0000253b CECR2.
Target sequence in this assay (Q9BXF3 whole entry, looked up): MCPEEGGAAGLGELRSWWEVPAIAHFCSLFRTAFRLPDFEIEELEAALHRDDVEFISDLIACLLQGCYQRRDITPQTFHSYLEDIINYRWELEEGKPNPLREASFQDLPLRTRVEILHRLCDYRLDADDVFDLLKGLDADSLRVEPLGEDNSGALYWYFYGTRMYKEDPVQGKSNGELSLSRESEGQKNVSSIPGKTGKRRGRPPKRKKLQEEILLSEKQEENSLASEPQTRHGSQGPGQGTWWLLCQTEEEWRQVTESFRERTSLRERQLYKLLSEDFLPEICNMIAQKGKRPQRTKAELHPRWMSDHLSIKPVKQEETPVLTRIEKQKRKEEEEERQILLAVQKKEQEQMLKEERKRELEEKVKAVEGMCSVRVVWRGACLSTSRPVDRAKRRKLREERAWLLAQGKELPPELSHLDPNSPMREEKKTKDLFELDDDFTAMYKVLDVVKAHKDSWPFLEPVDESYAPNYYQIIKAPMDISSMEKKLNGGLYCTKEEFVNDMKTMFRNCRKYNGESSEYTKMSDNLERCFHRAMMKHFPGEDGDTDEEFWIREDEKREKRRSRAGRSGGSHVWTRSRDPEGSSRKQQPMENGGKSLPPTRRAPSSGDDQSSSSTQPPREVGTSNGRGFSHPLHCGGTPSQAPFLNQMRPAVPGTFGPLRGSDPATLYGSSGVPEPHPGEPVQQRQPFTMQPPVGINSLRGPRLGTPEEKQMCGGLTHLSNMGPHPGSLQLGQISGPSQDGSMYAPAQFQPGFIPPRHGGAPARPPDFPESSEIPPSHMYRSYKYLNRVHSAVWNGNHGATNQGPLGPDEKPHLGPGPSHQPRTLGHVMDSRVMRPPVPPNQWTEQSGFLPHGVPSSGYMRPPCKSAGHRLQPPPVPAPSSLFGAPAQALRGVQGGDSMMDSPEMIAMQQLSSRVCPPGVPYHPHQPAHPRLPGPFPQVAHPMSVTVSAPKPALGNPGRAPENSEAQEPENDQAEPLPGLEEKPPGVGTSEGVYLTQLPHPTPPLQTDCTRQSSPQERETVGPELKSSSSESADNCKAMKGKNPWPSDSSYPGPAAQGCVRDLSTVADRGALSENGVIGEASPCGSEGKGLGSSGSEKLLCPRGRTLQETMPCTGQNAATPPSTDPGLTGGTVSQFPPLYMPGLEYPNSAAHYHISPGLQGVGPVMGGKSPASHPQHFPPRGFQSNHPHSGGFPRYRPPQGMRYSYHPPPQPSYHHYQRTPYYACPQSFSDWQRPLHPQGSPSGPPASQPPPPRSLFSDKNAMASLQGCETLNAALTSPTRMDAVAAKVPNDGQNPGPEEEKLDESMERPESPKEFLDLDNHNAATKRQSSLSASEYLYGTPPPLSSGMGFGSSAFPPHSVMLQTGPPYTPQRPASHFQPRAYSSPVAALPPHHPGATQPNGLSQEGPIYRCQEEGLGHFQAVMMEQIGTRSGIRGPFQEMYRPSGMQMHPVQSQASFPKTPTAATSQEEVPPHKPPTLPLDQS
The target of assay [4] is T3, Chromatin remodeling regulator CECR2. Description: Selectivity interaction (BROMOscan™ panel (DiscoverX)) EUB0000253b CECR2.
Target sequence in this assay (Q9BXF3 whole entry): as the sequence (Q9BXF3 whole entry, looked up) above
For assay [5] the target is unchanged. Nature of the assay: Selectivity interaction (NanoBRET assay (HEK293T cells)) EUB0000253b CECR2.
Target sequence in this assay (Q9BXF3 whole entry): as the sequence (Q9BXF3 whole entry, looked up) above
The target of assay [6] is T4, Histone acetyltransferase KAT2A (Homo sapiens, UniProt Q92830). Description: Selectivity interaction (BROMOscan™ panel (DiscoverX)) EUB0000253b KAT2A.
T4 sequence (Q92830 whole entry): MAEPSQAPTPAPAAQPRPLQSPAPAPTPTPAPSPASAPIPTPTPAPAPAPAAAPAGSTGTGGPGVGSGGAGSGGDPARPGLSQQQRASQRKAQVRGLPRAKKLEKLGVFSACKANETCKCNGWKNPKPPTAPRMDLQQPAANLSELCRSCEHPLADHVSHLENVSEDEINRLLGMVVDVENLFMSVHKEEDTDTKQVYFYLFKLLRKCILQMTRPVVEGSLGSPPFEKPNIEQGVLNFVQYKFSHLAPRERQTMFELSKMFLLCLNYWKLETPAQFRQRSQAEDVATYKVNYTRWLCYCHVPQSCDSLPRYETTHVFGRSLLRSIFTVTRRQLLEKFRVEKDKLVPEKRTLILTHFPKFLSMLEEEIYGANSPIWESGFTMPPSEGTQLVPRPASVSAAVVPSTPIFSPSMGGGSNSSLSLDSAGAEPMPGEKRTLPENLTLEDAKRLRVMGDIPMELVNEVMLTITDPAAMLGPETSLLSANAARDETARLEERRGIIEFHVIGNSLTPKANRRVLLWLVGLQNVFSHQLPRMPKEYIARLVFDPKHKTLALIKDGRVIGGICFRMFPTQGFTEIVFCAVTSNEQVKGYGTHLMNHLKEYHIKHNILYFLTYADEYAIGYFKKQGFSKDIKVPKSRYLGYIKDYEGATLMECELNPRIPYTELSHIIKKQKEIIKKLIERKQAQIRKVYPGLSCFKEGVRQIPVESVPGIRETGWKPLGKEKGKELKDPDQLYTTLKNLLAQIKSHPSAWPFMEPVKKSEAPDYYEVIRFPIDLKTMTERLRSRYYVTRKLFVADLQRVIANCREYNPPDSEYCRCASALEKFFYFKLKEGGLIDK
Assay [7] concerns the target T4, Histone acetyltransferase KAT2A. Nature of the assay: Selectivity interaction (NanoBRET assay (HEK293T cells)) EUB0000253b KAT2A.
For assay [8], the target named is T5, Histone acetyltransferase KAT2B (Homo sapiens, UniProt Q92831). Description: Selectivity interaction (Bromodomain panel (DSF assay)) EUB0000253b KAT2B.
Target sequence in this assay (Q92831 whole entry, looked up): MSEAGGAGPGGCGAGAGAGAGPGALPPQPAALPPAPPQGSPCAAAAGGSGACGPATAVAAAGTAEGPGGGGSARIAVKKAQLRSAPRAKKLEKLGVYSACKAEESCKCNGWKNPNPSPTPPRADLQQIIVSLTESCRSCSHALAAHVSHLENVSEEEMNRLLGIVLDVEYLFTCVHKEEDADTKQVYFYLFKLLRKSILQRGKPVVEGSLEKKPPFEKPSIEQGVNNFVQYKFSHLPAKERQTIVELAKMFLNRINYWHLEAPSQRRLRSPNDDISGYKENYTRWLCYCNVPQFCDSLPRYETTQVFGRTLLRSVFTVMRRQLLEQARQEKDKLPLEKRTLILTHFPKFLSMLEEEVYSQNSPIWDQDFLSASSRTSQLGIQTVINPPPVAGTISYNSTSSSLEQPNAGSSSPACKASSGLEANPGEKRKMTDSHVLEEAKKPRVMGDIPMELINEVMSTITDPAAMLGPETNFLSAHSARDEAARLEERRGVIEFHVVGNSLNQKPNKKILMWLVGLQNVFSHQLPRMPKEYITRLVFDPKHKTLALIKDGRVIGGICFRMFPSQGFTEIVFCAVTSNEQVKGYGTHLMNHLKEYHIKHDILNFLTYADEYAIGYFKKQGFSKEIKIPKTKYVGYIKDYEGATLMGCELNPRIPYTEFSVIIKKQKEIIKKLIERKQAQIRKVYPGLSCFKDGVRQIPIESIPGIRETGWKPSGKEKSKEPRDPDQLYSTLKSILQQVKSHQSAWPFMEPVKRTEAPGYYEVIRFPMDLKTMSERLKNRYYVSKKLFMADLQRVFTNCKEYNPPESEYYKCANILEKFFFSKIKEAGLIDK
In assay [9] the target is T5, Histone acetyltransferase KAT2B. Description: Selectivity interaction (BROMOscan™ panel (DiscoverX)) EUB0000253b KAT2B.
Target sequence in this assay (Q92831 whole entry): as the sequence (Q92831 whole entry, looked up) above
Assay [10] shares this target. Description: Selectivity interaction (NanoBRET assay (HEK293T cells)) EUB0000253b KAT2B.
Target sequence in this assay (Q92831 whole entry): as the sequence (Q92831 whole entry, looked up) above
Assay [11] concerns the target T6, Nucleosome-remodeling factor subunit BPTF (Homo sapiens, UniProt Q12830).
The target in assay [12] is T6, Nucleosome-remodeling factor subunit BPTF. The source holds these as a separate data set.
The target of assay [13] is Mitogen-activated protein kinase 10 (Homo sapiens, UniProt P53779). Nature of the assay: Selectivity interaction (KinomeScan (DiscoverX)) EUB0000704a MAPK10. Conditions: at 1 µM.
Assay [14] has as its target Sodium-dependent dopamine transporter (Homo sapiens, UniProt Q01959). Description: Selectivity interaction (GPCR panel (PDSP screen)) EUB0000704a SLC6A3.
Assay [15] deals with Serine/threonine-protein kinase PLK1 (Homo sapiens, UniProt P53350). Description: Selectivity interaction (KinomeScan (DiscoverX)) EUB0000704a PLK1. Conditions: at 1 µM.
Assay [16] deals with Serine/threonine-protein kinase WNK4 (Homo sapiens) (UniProt Q96J92). Nature of the assay: Selectivity interaction (KinomeScan (DiscoverX)) EUB0000704a WNK4. Conditions: at 1 µM.
Assay [17] addresses Serine/threonine-protein kinase WNK3 (Homo sapiens) (UniProt Q9BYP7). Description: Selectivity interaction (KinomeScan (DiscoverX)) EUB0000704a WNK3. Conditions: at 1 µM.
Assay [18] deals with T7, Gamma-aminobutyric acid receptor subunit alpha-1 (Homo sapiens, UniProt P14867).
T7 sequence (P14867 whole entry): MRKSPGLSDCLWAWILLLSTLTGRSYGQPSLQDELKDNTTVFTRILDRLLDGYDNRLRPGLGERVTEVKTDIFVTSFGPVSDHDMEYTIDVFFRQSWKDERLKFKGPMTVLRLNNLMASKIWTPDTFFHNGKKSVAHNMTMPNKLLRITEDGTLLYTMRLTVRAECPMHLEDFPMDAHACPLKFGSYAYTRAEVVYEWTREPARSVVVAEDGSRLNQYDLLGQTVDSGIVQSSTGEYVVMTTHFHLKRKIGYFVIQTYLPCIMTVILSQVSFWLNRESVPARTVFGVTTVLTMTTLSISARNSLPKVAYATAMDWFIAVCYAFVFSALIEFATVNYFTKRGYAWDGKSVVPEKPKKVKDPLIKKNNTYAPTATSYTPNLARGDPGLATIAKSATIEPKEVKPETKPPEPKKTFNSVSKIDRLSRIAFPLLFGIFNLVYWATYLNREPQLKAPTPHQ
Nature of the assay: Selectivity interaction (GPCR panel (PDSP screen)) EUB0000704a GABRA1.

Assay [19] addresses Protein kinase C alpha type (Homo sapiens) (UniProt P17252). Description: Selectivity interaction (KinomeScan (DiscoverX)) EUB0000704a PRKCA. Conditions: at 1 µM.

Sequence of 5-hydroxytryptamine receptor 7 (P34969 whole entry): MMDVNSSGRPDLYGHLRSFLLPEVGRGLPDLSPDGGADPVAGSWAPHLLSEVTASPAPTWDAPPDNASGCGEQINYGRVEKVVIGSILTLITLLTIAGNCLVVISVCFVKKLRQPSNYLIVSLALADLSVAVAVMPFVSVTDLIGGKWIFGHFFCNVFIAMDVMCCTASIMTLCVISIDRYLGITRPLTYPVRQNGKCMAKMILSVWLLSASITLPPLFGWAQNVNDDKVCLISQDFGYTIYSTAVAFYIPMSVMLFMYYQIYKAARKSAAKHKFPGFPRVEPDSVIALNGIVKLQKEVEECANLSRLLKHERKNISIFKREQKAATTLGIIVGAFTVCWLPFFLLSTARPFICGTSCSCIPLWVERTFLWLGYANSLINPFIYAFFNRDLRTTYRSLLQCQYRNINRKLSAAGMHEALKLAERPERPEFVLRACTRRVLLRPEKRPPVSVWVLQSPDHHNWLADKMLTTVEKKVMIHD
Sequence of Sodium-dependent dopamine transporter (Q01959 whole entry): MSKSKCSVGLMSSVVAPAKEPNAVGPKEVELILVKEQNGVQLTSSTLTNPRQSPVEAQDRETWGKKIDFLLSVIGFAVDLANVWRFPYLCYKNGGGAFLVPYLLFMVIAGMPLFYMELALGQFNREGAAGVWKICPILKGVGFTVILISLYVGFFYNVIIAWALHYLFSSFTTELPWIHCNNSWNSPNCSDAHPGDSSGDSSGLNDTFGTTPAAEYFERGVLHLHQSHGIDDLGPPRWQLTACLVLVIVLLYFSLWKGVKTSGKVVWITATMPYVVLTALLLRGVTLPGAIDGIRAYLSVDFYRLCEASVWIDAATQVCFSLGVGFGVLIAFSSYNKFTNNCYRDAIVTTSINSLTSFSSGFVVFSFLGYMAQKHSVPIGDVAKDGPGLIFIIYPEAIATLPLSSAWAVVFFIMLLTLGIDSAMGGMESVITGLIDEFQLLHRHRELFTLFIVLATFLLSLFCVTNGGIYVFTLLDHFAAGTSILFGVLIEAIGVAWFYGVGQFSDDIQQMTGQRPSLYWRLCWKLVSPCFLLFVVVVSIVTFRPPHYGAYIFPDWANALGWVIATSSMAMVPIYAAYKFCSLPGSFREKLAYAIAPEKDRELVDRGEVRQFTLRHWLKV

In turn, `N#CC1(c2ccccn2)CCN(Cc2cc(C(=O)O)c(=O)n3ccccc23)CC1` [MSD-M1PAM] gave a Ki in assay [1] above 10 µM.

On to `Cc1c(Nc2ccc(S(=O)(=O)N3CCN(C)CC3)cc2F)nc2ccc(-c3cnn(C4CC4)c3)cn2c1=O`, for which the IC50 is 4.9 µM against Adenosine receptor A3; 3.5 µM on D(3) dopamine receptor; 4 µM on Histamine H3 receptor; above 10 µM in [5]; above 10 µM in assay [7]; above 10 µM in assay [10]. Moreover, in [11], 0.03 µM corresponded to half-maximal inhibition (IC50). In addition, the dTm was determined as 1.95 K in [2], 2.48 K in [3], 1.53 K in assay [8] and 6.16 K in assay [12]. The Kd in assay [4] stood at 0.066 µM; in assay [6], 0.062 µM; in [9], 0.074 µM.

Turning to `Cc1ccc(-c2cnc([C@@]3(O)CC[C@H](C(=O)O)C(C)(C)C3)s2)cc1Nc1cccc(C(F)(F)F)n1` [MRL-SYKi-NC], the % of control in assay [13] came out at 38%; in assay [15], 20%; in assay [16], 32%; in assay [17] it was 0%; in assay [19], 33%. For the same compound, the Ki in [14] was above 10 µM; in assay [18], 0.774 µM.
